Measured values taken from patent publication US20190367520A1, “NEW COMPOUND HAVING FGFR INHIBITORY ACTIVITY AND PREPARATION AND APPLICATION THEREOF” (SHANGHAI INSTITUTE OF MATERIA MEDICA, CHINESE ACADEMY OF …, priority 2016, published 2019).

Columns and labels:
[1] = target: EGFR (Homo sapiens, UniProt P00533); test: Inhibitory activity on EGFR enzyme activity; assay type: biochemical
[2] = tested on: human lung cancer NCI-H1581 transplanted tumor; test: Growth of transplanted tumor of human lung cancer NCI-H1581 in nude mice; assay type: in vivo, nude mouse; conditions: for T/C (%) relative tumor proliferation rate: d14; for body weight change of the animals / tumor volume change of the animals: po, 14 days
Procedure: The tumor tissue in the vigorous growth period was cut into about 1.5 mm^3, and inoculated subcutaneously in the right axilla of nude mouse under aseptic conditions. The diameter of transplanted subcutaneously tumor in the nude mouse was measured with a vernier caliper. The mice were randomly divided into groups after the tumor was grown to an average volume of about 90 mm 3. The compound No. 12 obtained in Example 12 was orally administered once a day at a dose of 100 mg/kg and 20 mg/kg, respectively, for 14 days, and the growth inhibition effects of compound NO. 12 on subcutaneously transplanted tumor in human lung cancer NCI-H1581 nude mouse were measured.
In the solvent control group, an equal amount of physiological saline was given. During the entire experiment, the diameter of the transplanted tumor was measured twice a week, and the body weight of the mice was weighed. The tumor volume (TV) is calculated as: TV=½×a×b^2, where a and b represent length and width, respectively. According to the measured results, the relative tumor volume (RTV) was calculated as: RTV=Vt/V0, wherein V0 was the tumor volume measured when the mouse was administered in cage (i.e. d0), Vt was the tumor volume at each measurement.
On the day of the end of the experiment, 2 hours after administration, blood samples and tumor tissues of each group were collected and preserved.

[3] = target: FGFR1 kinase domain recombinant protein (Homo sapiens, UniProt P11362); test: FGFR1 enzyme activity at molecular level (ELISA, Poly(Glu,Tyr) 4:1 substrate)
Procedure: (§1) The plate was placed at 37° C. for 12-16 hours. The liquid in the well was discarded, the plate was washed, and the panel was washed three times with 200 μL/well of T-PBS (PBS containing 0.1% Tween-20) for 5 minutes each time.
(§2) 50 μL of ATP solution diluted with reaction buffer (50 mM HEPES pH 7.4, 50 mM MgCl2, 0.5 mM MnCl2, 0.2 mM Na3VO4, 1 mM DTT) was added to each well to a final concentration of 5 μM. The compound was diluted to a suitable concentration in DMSO, 1 μL/well or containing the corresponding concentration of DMSO (negative control well), and the FGFR1, FGFR4 kinase domain recombinant protein diluted in 49 μL of reaction buffer was added to initiate the reaction. Two control wells without ATP were required for each experiment. The reaction was carried out for 1 hour at 37° C. on a shaker (100 rpm). The plate was washed three times with T-PBS. Primary antibody, PY99 dilution was added at 100 μL/well and shaken at 37° C. for 0.5 hour. The plate was washed three times with T-PBS. Secondary antibody, horseradish peroxidase-labeled goat anti-mouse IgG dilution was added at 100 μL/well, and shaken at 37° C. for 0.5 hour. […] (Ultrasound was required for the dissolution of OPD, and the chromogenic solution needed to be prepared when used). 2 M H2SO4 was added at 50 μL/well to quench the reaction and a tunable wavelength microplate reader SPECTRA MAX 190 was used at a wavelength of 490 nm.
(§3) The inhibition rate of the sample was obtained by the following formula:
(§4) The IC50 value was obtained by four-parameter regression using the software attached to the microplate reader.

[4] = target: FGFR4 kinase domain recombinant protein (Homo sapiens, UniProt P22455); test: FGFR4 enzyme activity at molecular level (ELISA, Poly(Glu,Tyr) 4:1 substrate)
FGFR4 kinase domain recombinant protein, sequence (P22455 467-755 limits assumed): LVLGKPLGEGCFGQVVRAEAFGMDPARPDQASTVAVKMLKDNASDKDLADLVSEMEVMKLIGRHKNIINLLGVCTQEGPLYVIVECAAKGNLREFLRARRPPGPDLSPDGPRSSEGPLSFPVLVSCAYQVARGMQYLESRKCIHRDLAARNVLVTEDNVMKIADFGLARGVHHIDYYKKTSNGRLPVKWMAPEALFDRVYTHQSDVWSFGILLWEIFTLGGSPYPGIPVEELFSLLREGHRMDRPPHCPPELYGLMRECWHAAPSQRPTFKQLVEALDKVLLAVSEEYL
Procedure: as §1, §2, §3, §4

EGFR, sequence (P00533 25-1210, species assumed): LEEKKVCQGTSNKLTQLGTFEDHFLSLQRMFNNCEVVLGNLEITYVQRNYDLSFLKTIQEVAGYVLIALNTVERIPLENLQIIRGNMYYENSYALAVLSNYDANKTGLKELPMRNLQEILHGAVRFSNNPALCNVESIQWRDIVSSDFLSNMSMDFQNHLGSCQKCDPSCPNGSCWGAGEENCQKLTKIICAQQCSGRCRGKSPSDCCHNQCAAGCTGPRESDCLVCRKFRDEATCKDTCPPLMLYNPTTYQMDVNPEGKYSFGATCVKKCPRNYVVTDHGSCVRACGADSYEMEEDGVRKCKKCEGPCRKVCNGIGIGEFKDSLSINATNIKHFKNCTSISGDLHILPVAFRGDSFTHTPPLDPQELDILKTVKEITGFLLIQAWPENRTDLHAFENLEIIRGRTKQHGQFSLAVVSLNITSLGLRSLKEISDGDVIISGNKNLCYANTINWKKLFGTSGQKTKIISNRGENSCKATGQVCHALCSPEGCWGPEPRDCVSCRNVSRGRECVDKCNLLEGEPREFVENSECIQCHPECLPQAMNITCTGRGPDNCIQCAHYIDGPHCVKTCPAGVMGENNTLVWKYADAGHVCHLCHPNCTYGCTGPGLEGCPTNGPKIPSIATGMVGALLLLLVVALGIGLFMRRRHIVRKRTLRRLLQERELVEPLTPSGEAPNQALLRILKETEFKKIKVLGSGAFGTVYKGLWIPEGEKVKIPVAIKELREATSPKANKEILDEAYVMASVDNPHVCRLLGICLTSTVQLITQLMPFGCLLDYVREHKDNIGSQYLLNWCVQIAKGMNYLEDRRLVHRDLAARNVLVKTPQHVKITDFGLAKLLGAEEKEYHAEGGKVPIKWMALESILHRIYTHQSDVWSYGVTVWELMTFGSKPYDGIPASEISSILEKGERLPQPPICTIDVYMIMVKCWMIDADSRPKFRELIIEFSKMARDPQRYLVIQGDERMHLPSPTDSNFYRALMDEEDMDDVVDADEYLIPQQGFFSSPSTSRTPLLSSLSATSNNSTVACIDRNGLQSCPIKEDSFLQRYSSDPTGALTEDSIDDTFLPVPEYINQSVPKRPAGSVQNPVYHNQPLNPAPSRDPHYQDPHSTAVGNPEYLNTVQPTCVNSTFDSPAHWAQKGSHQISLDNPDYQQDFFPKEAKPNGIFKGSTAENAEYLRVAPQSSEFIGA
FGFR1 kinase domain recombinant protein, sequence (P11362 478-767 limits assumed): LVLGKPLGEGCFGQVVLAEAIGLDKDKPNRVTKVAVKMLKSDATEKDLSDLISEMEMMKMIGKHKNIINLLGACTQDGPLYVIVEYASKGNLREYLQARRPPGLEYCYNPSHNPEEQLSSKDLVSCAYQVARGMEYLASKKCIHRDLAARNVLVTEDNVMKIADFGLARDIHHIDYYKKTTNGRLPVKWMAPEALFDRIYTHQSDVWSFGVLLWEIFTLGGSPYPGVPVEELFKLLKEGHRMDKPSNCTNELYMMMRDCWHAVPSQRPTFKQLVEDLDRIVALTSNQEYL

IC50 [1]: > 1 µM
IC50 [3]: < 0.01 µM
IC50 [4]: < 0.01 µM
SMILES: C=CC(=O)N1CC[C@H](n2cc(-c3cc4cc(C)cc(OC)c4s3)c3c(N)ncnc32)C1 [NO. 12, (S)-1-(3-(4-amino-5-(7-methoxy-5-methylbenzothiophene-2-yl)-7H-pyrrole[2,3-d]pyrimidine-7-yl)pyrrolidine-1-yl)prop-2-en-1-one]
EGFR inhibitory activity (in words) ([1]; conclusion from Table 3): substantially no EGFR inhibitory activity
T/C (%) relative tumor proliferation rate ([2]; 20 mg/kg qd/14 po): 31.28%
body weight change of the animals ([2]; 20 mg/kg): 24.2%
tumor volume change of the animals ([2]; 20 mg/kg): 1500%
T/C (%) relative tumor proliferation rate ([2]; 100 mg/kg qd/14 po): 2.9%
body weight change of the animals ([2]; 100 mg/kg): −5.9%
tumor volume change of the animals ([2]; 100 mg/kg): 54.8%
